From patent US8945846B2, “Mutations in the LNK gene in patients with myeloproliferative neoplasms and other hematolymphoid malignancies” (The Board of Trustees of the Leland Stanford Junior …, priority 2010, dated 2015)

Experiments:
[1] = system: BaF3-MPL cells expressing WT or mutant LNK; assay: JAK inhibitor growth assay of BaF3-MPL cells grown with TPO; format: cell-based; conditions: TPO 10 ng/mL, JAK inhibitor I 0.2 μM to 5 μM, FIG. 2C
Procedure: FIG. 2. LNK mutations cause dysregulated TPO-dependent growth and JAK2-STAT3/5 activation. BaF3-MPL cells were transduced with empty vector (EV), WT LNK (WT), or mutant LNK (DEL, E208Q, R392E). […] Viable cells were counted daily by staining with propidium iodide (PI) and quantitated with TruCount beads on a LSRII flow cytometer. Error bars represent the standard deviation of two replicates per sample. In Panel B, BaF3-MPL cells were stimulated with TPO (1 ng/ml) for the durations indicated, followed by measurement of JAK2, STAT3 and STAT5 activation via phospho-specific flow cytometry. […] Vertical lines denote the MFI of EV unstimulated cells for comparison. In Panel C, BaF3-MPL cells were cultured in the presence of DMSO control or concentrations of JAK inhibitor I ranging from 0.2 μM to 5 μM. Cumulative growth at four days (normalized to maximal growth for each cell line) is shown. Error bars represent the standard deviation of two replicates per sample.
BaF3-MPL cells were kindly provided by J. Tyner/B. Druker (Oregon Health and Sciences University, Portland, Oreg.) and were maintained in RPMI medium containing 10% FBS and IL-3 (1 ng/mL) (Peprotech, Rocky Hill, N.J.). […] Viable cells were counted daily by staining with propidium iodide (PI) and quantitated with TruCount beads (BD Biosciences, San Jose, Calif.) on a LSRII flow cytometer. […]

[2] = system: STAT3/5 activation (pSTAT3+/5+ subpopulation); assay: Cytokine-stimulated STAT3/5 activation by phospho-specific flow cytometry in patient peripheral blood immature myeloid cells; format: cell-based, human; conditions: samples from LNK DEL, E208Q, JAK2 V617F, MPL W515L patients and normal donor; 5 μM for 30 minutes, then TPO 50 ng/ml or G-CSF 20 ng/ml for 15 minutes; FIG. 3A
Procedure: FIG. 3. Identification of a cytokine-responsive pSTAT3+/pSTAT5+ population in CD34+ early progenitors from patients with LNK mutations. Peripheral blood samples from patients with the LNK DEL and E208Q mutations, as well as PMF patients with the JAK2 V617F and MPL W515L mutations, were compared with normal donor. CD3-/CD66-/CD33mid immature myeloid cells are shown in Panels A-C. In Panel A, samples were pre-incubated with either DMSO or JAK inhibitor I (5 μM) for 30 minutes, and then stimulated with either TPO (50 ng/ml) or G-CSF (20 ng/ml) for 15 minutes, prior to assessment of STAT3 and STAT5 activation by phospho-specific flow cytometry. […] For Panels A and B, numbers depicted in each quadrant represent the percentage of total cells present in each quadrant gate. […] DNA was isolated from each subset, and allele-specific quantitative PCR for the DEL mutation was performed. […]
BaF3-MPL cells were starved overnight in cytokine-free media and stimulated with TPO (1 or 10 ng/mL) for time points ranging from 15 minutes to 16 hours at 37° C. […] Cells were measured on a BD LSRII flow cytometer. […] Flow cytometry data was obtained with FACSDiva software and analyzed using FlowJo (Tree Star, Ashland, Oreg.) or Cytobank according to standard procedures. […]

JAK2-STAT3/5 activation = assay: TPO-stimulated JAK2, STAT3 and STAT5 activation by phospho-specific flow cytometry in BaF3-MPL cells; format: cell-based; conditions: BaF3-MPL cells expressing WT or mutant LNK; pre-incubated two hours with 0.2 μM to 5 μM, then TPO 10 ng/mL; FIG. 5
Procedure: FIG. 5. Activation of JAK2-STAT3/5 in BaF3-MPL cells expressing WT or mutant LNK requires JAK activity. BaF3-MPL cells expressing WT or mutant LNK were pre-incubated with DMSO or JAK inhibitor I at concentrations ranging from 0.2 μM to 5 μM for two hours prior to stimulation with TPO (10 ng/mL). JAK2, STAT3, and STAT5 activation were then measured by phospho-specific flow cytometry. Line graphs represent % maximal activation for each cell line.
BaF3-MPL cells were starved overnight in cytokine-free media and stimulated with TPO (1 or 10 ng/mL) for time points ranging from 15 minutes to 16 hours at 37° C. Peripheral blood samples were stimulated with either TPO (50 ng/ml) or G-CSF (20 ng/ml)(Peprotech, Rocky Hill, N.J.) for 15 minutes at 37° C. PBMCs were rested in RPMI with 10% FBS for one hour at 37° C. prior to cytokine stimulation. For the JAK inhibitor experiments, PBMCs were incubated with 5 μM JAK inhibitor I (EMD/Calbiochem, San Diego, Calif.) for the final 30 minutes prior to cytokine stimulation. Following cytokine stimulation, cells were fixed in paraformaldehyde (Electron Microscopy Sciences, Hatfield, Pa.). […] Cells were measured on a BD LSRII flow cytometer. […] Flow cytometry data was obtained with FACSDiva software and analyzed using FlowJo (Tree Star, Ashland, Oreg.) or Cytobank according to standard procedures. […]

JAK inhibitor I
TPO-dependent growth (cumulative growth at four days) [1]: remained susceptible to JAK inhibition | Effect on cytokine-responsive pSTAT3+/5+ subpopulation [2]: completely eradicated | Inhibition of JAK2-STAT3/5 activation (JAK2-STAT3/5 activation): effectively inhibited
